Each structure is given as a SMILES string.

Test [1] has as its system NOX-S93 (L-RNA, aptamer, four 2'-deoxyribonucleotides (positions not given; Figure 1)) GCGUGAAUAGCCGUUGAAACGCCUUUAGAGAAGCACUAGCACGC
The test can be described thus: neutralisation in S1PR3 calcium release cell assay, direct. The following applies: UltraCHO medium, 20 mM Hepes.

Test [2] shares this test system. The test can be described thus: competition in S1PR3 calcium release cell assay. The settings on record: UltraCHO medium, 20 mM Hepes, 100 nM NOX-S93, 10 nM S1P.

For the molecule `CCCCCCCC/C=C\CCCCCCCC(=O)OC[C@@H](O)COP(=O)(O)O`, the binding entry in test [1] (50 nM LPA, no inhibition) is “no”.

`CCCCCCCCCCCC/C=C/[C@@H](O)[C@@H](N)COP(=O)(O)O`: in test [1] (10 nM C17-S1P), the binding entry is “yes”.

As for `CCCCCCCCCCCCC/C=C/[C@@H](O)[C@@H](N)CO`, the binding entry in test [2] (up to 1 μM competitor) is recorded as “no”.

For `CCCCCCCCCCCCC/C=C/[C@@H](O)[C@@H](N)COP(=O)(O)O`, the binding entry in test [1] (10 nM S1P) was “yes”.

On to `CCCCCCCCCCCCC/C=C/[C@@H](O)[C@@H](N)COP(=O)([O-])OCC[N+](C)(C)C`, for which, in test [2] (up to 300 nM competitor), the binding result was “no”.

For `CCCCCCCCCCCCC/C=C/[C@@H](O)[C@H](CO)NC(C)=O`, the binding entry in test [2] (up to 3 μM competitor) is reported as “no”.

`CCCCCCCCCCCCC/C=C/[C@@H](O)[C@H](COP(=O)(O)O)NC(=O)CCCCCCCCCCCCCCC`: the binding result in test [2] (up to 3 μM competitor) is listed as “no”.

As for `CCCCCCCCCCCCCCC/C=C/[C@@H](O)[C@@H](N)COP(=O)(O)O`, the binding entry in test [1] (80 nM C20-S1P) is recorded as “yes”.

Regarding `CCCCCCCCCCCCCCC[C@@H](O)[C@@H](N)COP(=O)(O)O`, the binding entry in test [1] (30 nM dihydro-S1P) is “yes”.

The record behind these values is PMC4109837 (2014).
